Reference: the supplement of paper PMC10307832

Tests used:
Test in all cases: relative viability (nuclei count vs DMSO), 5 days (fraction); higher = more cells survive
[1] = compound: O=C(CCCCCCNC(=O)c1cnc(N(c2ccccc2)c2ccccc2)nc1)NO [Ricolinostat] + O=C(CCCCCCC(=O)Nc1ccccc1)NO [Vorinostat] (partner 1 µM)
Method in brief: (§1)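 After 5 days of treatment, lung cancer cells in 1536-well plates were fixed and stained in a single step (final 0.05% Triton X-100, 1% formaldehyde, 1 ug/ml Hoechst) and their nuclei counted on 4× images. Treatment had been applied by pin tool the day after seeding as one drug alone or as a fixed anchor-drug dose with five library-drug doses (not always all listed) in √10 steps. Relative viability is the nuclei count of treated wells divided by that of vehicle wells, and values are medians of duplicate plates.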

TGX 221 + Decitabine = compound: CC1=CN2C(=O)C=C(N=C2C(=C1)C(C)NC3=CC=CC=C3)N4CCOCC4 [TGX 221] + Nc1ncn([C@H]2C[C@H](O)[C@@H](CO)O2)c(=O)n1 [Decitabine] (partner 2 µM)
Method in brief: as §1

TGX 221 + Crizotinib = compound: CC1=CN2C(=O)C=C(N=C2C(=C1)C(C)NC3=CC=CC=C3)N4CCOCC4 [TGX 221] + C[C@@H](Oc1cc(-c2cnn(C3CCNCC3)c2)cnc1N)c1c(Cl)ccc(F)c1Cl [Crizotinib] (partner 1 µM)
Method in brief: as §1

TGX 221 + Vorinostat = compound: CC1=CN2C(=O)C=C(N=C2C(=C1)C(C)NC3=CC=CC=C3)N4CCOCC4 [TGX 221] + O=C(CCCCCCC(=O)Nc1ccccc1)NO [Vorinostat] (partner 1 µM)
Method in brief: as §1

Cell Line	relative viability ([1]; first compound 0.08 µM)	relative viability ([1]; first compound 0.253 µM)	relative viability ([1]; first compound 0.8 µM)	relative viability ([1]; first compound 2.53 µM)	relative viability (TGX 221 + Decitabine; first compound 0.08 µM)	relative viability (TGX 221 + Decitabine; first compound 0.253 µM)	relative viability (TGX 221 + Decitabine; first compound 0.8 µM)	relative viability (TGX 221 + Decitabine; first compound 2.53 µM)	relative viability (TGX 221 + Decitabine; first compound 8 µM)	relative viability (TGX 221 + Crizotinib; first compound 0.253 µM)	relative viability (TGX 221 + Crizotinib; first compound 0.8 µM)	relative viability (TGX 221 + Crizotinib; first compound 2.53 µM)	relative viability (TGX 221 + Crizotinib; first compound 8 µM)	relative viability (TGX 221 + Vorinostat; first compound 0.08 µM)	relative viability (TGX 221 + Vorinostat; first compound 0.253 µM)	relative viability (TGX 221 + Vorinostat; first compound 0.8 µM)	relative viability (TGX 221 + Vorinostat; first compound 2.53 µM)	relative viability (TGX 221 + Vorinostat; first compound 8 µM)	relative viability (TGX 221 + Crizotinib; first compound 0.08 µM)
201T	0.818	0.951	0.959	0.843	0.831	0.85	0.844	0.871	0.873	1.07	1.01	0.993	0.985	1	0.956	0.902	0.927	0.879	–
A549	–	–	–	–	0.337	0.25	0.294	0.26	0.349	0.743	0.773	0.751	0.529	–	–	–	–	–	0.677
A-427	0.789	0.789	0.624	0.752	0.548	0.55	0.558	0.594	0.519	0.924	0.879	0.776	0.824	0.872	0.876	0.817	0.847	0.856	0.958
ABC-1	1.02	1.06	0.749	0.762	1.06	1.26	1	1.07	0.923	0.809	1.25	1.01	1.26	1.2	0.753	0.996	0.981	1.29	0.946
BEN	0.517	0.543	0.592	0.498	0.679	0.669	0.667	0.715	0.715	0.641	0.821	0.795	0.721	0.588	0.572	0.523	0.501	0.547	0.931
CAL-12T	0.801	0.524	0.698	0.379	–	–	–	–	–	0.673	0.72	0.689	0.595	0.826	0.7	0.75	0.876	0.707	0.53
COR-L23	0.406	0.383	0.388	0.297	0.445	0.402	0.483	0.487	0.489	0.523	0.727	0.597	0.619	0.425	0.409	0.436	0.469	0.336	0.597
COR-L 105	0.794	0.825	0.643	0.7	0.651	0.609	0.628	0.649	0.596	0.748	0.967	0.728	0.519	0.906	0.884	0.869	0.726	0.82	0.883
Calu-6	–	–	–	–	–	–	–	–	–	0.698	0.806	0.768	0.693	–	–	–	–	–	0.718
ChaGo-K-1	0.717	0.762	0.73	0.523	0.485	0.519	0.563	0.544	0.548	1.01	1.18	1.11	0.989	0.742	0.758	0.749	0.727	0.707	1.1
EBC-1	–	–	–	–	–	–	–	–	–	0.183	0.211	0.178	0.183	–	–	–	–	–	0.203
EKVX	0.617	0.724	0.62	0.74	0.346	0.313	0.345	0.367	0.307	0.832	0.843	0.927	0.773	0.767	0.758	0.841	0.608	0.539	0.85
EMC-BAC-2	0.398	0.417	0.25	0.293	0.961	0.886	0.947	1.05	0.85	0.706	0.746	0.743	0.569	0.414	0.461	0.426	0.493	0.424	0.745
EPLC-272H	0.343	0.396	0.313	0.174	0.352	0.349	0.316	0.343	0.332	0.57	0.833	–	0.72	0.47	0.358	0.469	0.426	0.369	0.827
H3255	0.735	1.09	0.672	0.591	0.54	0.595	0.53	0.58	0.553	0.812	0.881	0.848	0.575	0.779	0.823	0.816	0.782	0.845	0.745
HARA	0.496	0.446	0.377	0.373	0.604	0.488	0.529	0.504	0.433	1.02	0.905	1.16	0.795	0.508	0.475	0.575	0.517	0.471	1.06
HCC-15	0.768	0.746	0.691	0.618	0.699	0.648	0.636	0.591	0.709	0.783	0.852	0.772	0.811	0.753	0.787	0.977	0.839	0.787	0.821
HCC-44	1.16	0.99	1.06	1.06	0.921	0.957	1.03	1.04	1.02	0.794	0.875	0.758	0.733	1.12	1.22	1.17	1.17	1.21	0.83
HCC-78	–	0.433	0.395	0.362	0.589	0.736	0.699	0.693	0.68	0.334	–	0.294	0.274	0.518	0.449	0.428	0.338	0.362	0.385
HCC-366	0.296	0.327	0.313	0.165	0.333	0.305	0.345	0.344	0.365	0.524	0.483	0.448	0.398	0.357	0.327	0.365	0.292	0.351	0.561
HCC-827	0.768	0.86	0.574	0.915	0.292	0.359	0.281	0.305	0.327	0.937	0.985	0.859	0.892	0.777	0.922	0.888	0.891	0.852	0.884

Cell Line	relative viability ([1]; first compound 0.08 µM)	relative viability ([1]; first compound 0.253 µM)	relative viability ([1]; first compound 0.8 µM)	relative viability ([1]; first compound 2.53 µM)	relative viability (TGX 221 + Decitabine; first compound 0.08 µM)	relative viability (TGX 221 + Decitabine; first compound 0.253 µM)	relative viability (TGX 221 + Decitabine; first compound 0.8 µM)	relative viability (TGX 221 + Decitabine; first compound 2.53 µM)	relative viability (TGX 221 + Decitabine; first compound 8 µM)	relative viability (TGX 221 + Crizotinib; first compound 0.253 µM)	relative viability (TGX 221 + Crizotinib; first compound 0.8 µM)	relative viability (TGX 221 + Crizotinib; first compound 2.53 µM)	relative viability (TGX 221 + Crizotinib; first compound 8 µM)	relative viability (TGX 221 + Vorinostat; first compound 0.08 µM)	relative viability (TGX 221 + Vorinostat; first compound 0.253 µM)	relative viability (TGX 221 + Vorinostat; first compound 0.8 µM)	relative viability (TGX 221 + Vorinostat; first compound 2.53 µM)	relative viability (TGX 221 + Vorinostat; first compound 8 µM)	relative viability (TGX 221 + Crizotinib; first compound 0.08 µM)
HOP-62	0.572	0.537	0.478	0.292	0.213	0.185	0.207	0.246	0.268	0.873	0.992	0.953	0.88	0.57	0.581	0.667	0.521	0.542	0.893
IA-LM	–	0.96	0.8	0.647	–	–	–	–	–	0.711	0.903	0.864	0.788	–	0.981	1.01	0.827	0.941	0.879
LC-2-ad	0.68	0.67	0.64	0.458	0.765	0.793	0.822	0.826	0.742	0.423	0.475	0.499	0.486	0.676	0.682	0.761	0.71	0.67	0.438
LCLC-97TM1	0.487	0.556	0.628	0.333	0.206	0.22	0.233	0.228	0.225	0.299	0.41	0.263	0.252	0.819	0.459	0.856	0.615	0.847	0.394
LCLC-103H	0.662	0.738	0.639	0.522	0.777	0.704	0.677	0.725	0.754	1.06	0.986	0.959	0.876	0.761	0.806	0.708	0.647	0.766	1.12
LK-2	0.393	0.311	0.261	0.192	0.341	0.308	0.25	0.296	0.307	0.212	0.235	0.213	0.269	0.356	0.309	0.249	0.415	0.505	0.252
LOU-NH91	–	0.955	0.782	0.755	0.821	0.763	0.785	0.802	0.788	0.75	0.746	0.735	0.655	0.888	0.963	0.957	0.902	0.9	0.796
LU99A	0.513	0.473	0.462	0.326	0.861	0.842	0.852	0.937	0.997	0.577	0.516	0.517	0.563	0.431	0.514	0.588	0.356	0.529	0.493
LXF-289	0.697	0.723	0.681	0.483	0.37	0.371	0.369	0.348	0.375	0.832	0.808	0.774	0.82	0.77	0.757	0.732	0.714	0.771	0.813
NCI-H23	0.426	0.586	0.407	0.342	0.35	0.329	0.271	0.33	0.322	0.391	0.518	0.465	0.454	0.638	0.625	0.579	0.498	0.659	0.58
NCI-H522	0.836	0.919	0.855	0.628	0.717	0.624	0.696	0.587	0.64	–	–	–	–	0.976	0.822	0.883	0.831	0.826	–
NCI-H1299	–	–	–	–	–	–	–	–	–	0.942	0.949	0.96	0.904	–	–	–	–	–	0.933
NCI-H1395	–	0.833	0.468	0.674	0.712	0.685	0.662	0.615	0.614	–	–	–	–	0.601	0.537	0.553	0.557	0.664	–
NCI-H1563	–	–	–	–	–	–	–	–	–	0.832	0.766	0.736	0.666	–	–	–	–	–	0.846
NCI-H1648	–	0.483	0.458	0.254	–	0.554	0.499	0.474	0.523	–	–	–	–	–	0.295	0.651	0.395	0.421	–
NCI-H1703	–	–	–	–	–	–	–	–	–	0.618	0.715	0.31	0.54	–	–	–	–	–	0.797
NCI-H1793	0.519	0.72	0.566	0.726	0.442	0.369	0.479	0.381	0.37	–	–	–	–	0.612	0.521	0.589	0.592	0.588	–
NCI-H2228	0.896	0.647	0.605	0.64	–	–	–	–	–	0.288	0.354	0.327	0.384	0.462	0.324	0.599	0.575	0.302	0.399
NCI-H2342	0.693	0.694	0.757	0.745	0.693	0.638	0.725	0.68	0.773	–	–	–	–	0.697	0.711	0.836	0.804	0.793	–
SW 900	0.446	0.61	0.483	0.327	–	0.406	0.466	0.42	0.351	–	–	–	–	–	0.473	0.403	0.37	0.505	–
